Measured values: US9034303B2, “Neuroprotective and neuro-restorative iron chelators and monoamine oxidase inhibitors and uses thereof” (priority 2010, dated 2015)
Entries after “also recorded” stand apart in the source; their conditions may differ.

Legend:
rat brain MAO-B = rat brain MAO-B (Rattus norvegicus (Rat), UniProt P19643); assay: In vitro inhibition of rat brain MAO-B (14C-PEA substrate); type: biochemical
Experimental: Rats are decapitated and the brains quickly taken into a weighted ice-cold sucrose buffer (0.32 M) and their weights determined. All subsequent procedures are performed at 0° C. The brains are homogenized in 0.32 M sucrose (one part tissue to 20 parts sucrose) in a Teflon glass homogenizer followed by the addition of sucrose buffer to a final concentration of 10% homogenate. The homogenates are centrifuged at 600 g for 15 min. The supernatant fractions are taken out and centrifuged at 4500 g for 30 min, the pellet diluted in 0.32 M sucrose buffer and kept frozen for later assaying of MAO.
MAO-A and MAO-B activities are determined in rat brain homogenate in vitro following incubation with varying concentrations of the test compounds.
The in vitro inhibitory activity of the compounds is tested against rat brain MAO-B. The test compounds are added to buffer containing 10^−7 M clorgylin and are incubated with the tissue homogenate for 30 or 60 min at 37° C. before addition of ^14C-PEA.
The test compound was added to a suitable dilution of the enzyme preparation (70 μg protein for MAO-B and 150 μg MAO-A assay) in 0.1 M phosphate buffer (pH 7.4). The mixture was incubated together with […], a specific inhibitor of MAO-B (for determination of MAO-A) or 0.05 M clorgylin, a specific inhibitor of MAO-A (for determination of MAO-B). Incubation was carried for 0.5 or 1 h at 37° C. before addition of ^14C-5-hydroxytryptamine binoxalate (5-HT) (100 or 400 μM) for determination of MAO-A, or ^14C-phenylethylamine (^14C-PEA) 100 or 400 μM for determination of MAO-B, and incubation continued for 30 min or 20 min, respectively. The reaction was stopped with 2 M ice-cold citric acid, and the metabolites were extracted and determined by liquid-scintillation counting in cpm units.
The reaction was stopped with 2 M ice-cold citric acid, and the metabolites were extracted with ethyl acetate and levels of radioactivity were determined by liquid-scintillation counting in CPM units. All assays were performed at least in duplicate and outcome was expressed as a mean±SEM. Data were analyzed by a Student's t test. Variations were considered statistically significant at a p value of 0.05.
MAO-A and MAO-B activity was measured using radioactive substrates. The substrate for MAO-A was 5 HT and for MAO-B was PEA. When measuring the activity of MAO-A, the MAO-B activity was inhibited with deprenyl and when measuring the activity of MAO-B the activity of MAO-A was inhibited with clorgylin. Blank samples were produced using TCP to inhibit both of the enzymes. The metabolites were extracted to toluene and read in a β-counter. The results are expressed in relative activity and normalized to the amount of protein in the tissue.

[1] = Follow-up stability experiment at 37° C. in PBS; type: physicochemical
Experimental: (§1) Using high pressure liquid chromatography (HPLC), the stability of each of the tested compounds was determined by following its respective chemical character over time in either phosphate buffered saline (PBS) and/or 0.85% saline solution (sodium chloride). In each case, 0.5 mM of the tested compound in PBS or saline solution was incubated at 25° C. or at 37° C. for 20 hours or, in some cases, up to two days (48 hours).
In addition, in a follow-up experiment the instability of M30, and the stability of compounds 3, 7 and 8 was also confirmed at 37° C. in PBS, Table 2, below.

[2] = Stability in aqueous solution (PBS or saline) followed by HPLC; type: physicochemical; details: for Amount of compound remaining (%): 25° C., 0.5 mM
Experimental: as §1

HepG2 cells = assay: Cytotoxicity in presence and absence of exogenous iron, HepG2; type: cell-based, human
Experimental: The potential of compound 3 to be toxic in the presence of free iron was also tested. The iron complexation method was based on the method of Leanderson and Tagesson (Carcinogenesis, 17, 545-550, 1996) with some modifications. Iron (III) was prepared from ferric ammonium citrate (Sigma, F5879) at 80 mM in sterile distilled water. Compound 3 was prepared at a 200 mM concentration in DMSO. Before each experiment, the freshly prepared iron (III) solution was diluted to 0.4 mM in PBS II (PBS containing 0.90 mM Ca^2+ and 0.49 mM Mg^2+). Compound 3 stock solutions were diluted to 2, 0.2, and 0.02 mM with PBS II. Equal volumes of the 0.4 mM iron (III) solution and compound 3 solutions were added together to prepare iron/test article complex solutions containing 1, 0.1, and 0.01 mM compound 3 and 0.2 mM iron (III). The compound 3 DMSO stock solution was diluted in PBS II at 1, 0.1, or 0.01 mM and used as compound 3 control without iron. An equal volume of the 0.4 mM iron (III) solution was diluted in PBS II to prepare a control containing only iron.
The medium was removed from the plated cells (both cell lines) and replaced with fresh medium (90 μL). Iron/compound 3 complex or compound 3 in PBS II without iron was added to cells in triplicate (10 μL) to final compound 3 concentrations of 100, 10, and 1 μM and an iron (III) concentration of 20 μM. Wells containing no cells were used as the background control. PBS II was run as vehicle control. Iron only was run at a final concentration of 20 μM.
Cell viability was determined as described above and cytotoxicity was compared between treatments with and without iron complexation.

[3] = Plasma stability in vitro in human blood plasma (LC-MS/MS); type: in vitro ADME; details: 10 μM, ~37° C.
Experimental: The stability of the compound 3 was evaluated in human blood plasma. Human plasma was purchased from a commercial source (Bioreclamation, Inc., East Meadow, N.Y.). The plasma was prepared from blood collected using sodium fluoride/potassium oxalate as the anticoagulant. The plasma was stored at −20° C. prior to use. The plasma, once thawed for use, was centrifuged at ˜4000 rpm for five minutes and transferred to a new tube to remove any precipitate. The pH of the plasma was adjusted to 7.4. Compound 3 was added to plasma samples to achieve a final concentration of 10 μM and distributed into the required number of low retention tubes (triplicate tubes for each timepoint) for incubation at ˜37° C. in a water bath. Incubations were terminated at 0, 1, and 6 hours by the addition of three volumes of cold acetonitrile. The supernate after centrifugation was subjected to LC-MS/MS analysis. Stability of the test article was assessed by comparison of the peak area at one and six hours to that at time zero.

Sequence of rat brain MAO-B (P19643 whole entry): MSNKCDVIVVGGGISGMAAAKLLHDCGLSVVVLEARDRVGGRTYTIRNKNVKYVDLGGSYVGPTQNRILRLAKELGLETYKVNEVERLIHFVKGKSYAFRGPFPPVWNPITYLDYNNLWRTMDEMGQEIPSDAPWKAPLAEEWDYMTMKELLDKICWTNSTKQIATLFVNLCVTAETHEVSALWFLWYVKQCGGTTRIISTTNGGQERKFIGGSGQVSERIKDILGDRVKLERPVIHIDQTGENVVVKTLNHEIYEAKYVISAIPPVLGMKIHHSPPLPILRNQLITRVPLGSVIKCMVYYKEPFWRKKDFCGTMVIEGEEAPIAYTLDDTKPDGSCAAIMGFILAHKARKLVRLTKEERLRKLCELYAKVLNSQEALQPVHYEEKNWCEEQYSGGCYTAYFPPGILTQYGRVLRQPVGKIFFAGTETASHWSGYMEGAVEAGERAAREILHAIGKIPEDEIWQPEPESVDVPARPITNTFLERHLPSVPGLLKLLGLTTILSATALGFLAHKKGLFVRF

C#CCN(C)CCc1ccc(O)c2ncccc12 [Compound 3, 5-[2-(methyl-2-propyn-1-ylamino)ethyl]-8-quinolinol]
IC50 (rat brain MAO-B): 10 to 30 nM | Inhibition of rat brain MAO-B in vitro (in words) (rat brain MAO-B; rat brain): potent inhibitors | Amount of compound remaining (%) ([1]; 3 hours): ≧100% | Amount of compound remaining (%) ([1]; 8 hours): 95.7% | Amount of compound remaining (%) ([1]; 24 hours): ≧100% | Amount of compound remaining (%) ([1]; 48 hours): 87.2% | Stability in aqueous solution (in words) ([2]; PBS and/or saline solution): highly stable chemically; also recorded: ^+Compound 3 was stable for up to 48 hours at 25 °C in both saline and PBS | Amount of compound remaining (%) ([2]; PBS, 0.5 hours): 100% | Amount of compound remaining (%) ([2]; PBS, 2 hours): 100% | Amount of compound remaining (%) ([2]; PBS, 20 hours): 100% | Amount of compound remaining (%) ([2]; PBS, 48 hours): 100% | Amount of compound remaining (%) ([2]; saline, 0.5 hours): 100% | Amount of compound remaining (%) ([2]; saline, 2 hours): 100% | Amount of compound remaining (%) ([2]; saline, 20 hours): 100% | Amount of compound remaining (%) ([2]; saline, 48 hours): 100% | HepG2 cell death (%) (HepG2 cells; with iron (20 μM), compound 1 μM): 4.8% | HepG2 cell death (%) (HepG2 cells; with iron (20 μM), compound 10 μM): 11.9% | HepG2 cell death (%) (HepG2 cells; with iron (20 μM), compound 100 μM): 99.5% | HepG2 cell death (%) (HepG2 cells; without iron, compound 1 μM): −0.1% | HepG2 cell death (%) (HepG2 cells; without iron, compound 10 μM): −0.7% | HepG2 cell death (%) (HepG2 cells; without iron, compound 100 μM): −3.6% | Amount of compound 3 in human blood plasma ([3]; 0 hour, reference time point): 100% | Amount of compound 3 in human blood plasma ([3]; 1 hour): 86% | Amount of compound 3 in human blood plasma ([3]; 6 hours): 93%
